In US4116950A, “Analogs of human β-endorphin” (Hoffmann-La Roche Inc., priority 1978, dated 1978):

Legend:
guinea pig ileum = experiment: Opiate activity by guinea pig ileum assay (in vitro); format: cell-based; settings: for relative potency: calculated using the IC50 of βh-endorphin as 100%; for IC50: guinea pig ileum assay
Excerpt: (§1) In vitro assay of opiate activity was by the guinea pig ileum method of Kosterlitz et al, Brit. J. Pharmacol. 39, 398 (1970) and in vivo assay in mice was by the tail-flick method of D'Amour and Smith, J. Pharmacol. Exp. Therap. 72, 74 (1941). The experimental procedure and method of calculation has been outlined by Loh et al., Proc. Natl. Acad. Sci. 73, 2895 (1976) and Tseng et al., Nature 263, 239 (1976).

mice = experiment: Analgesic potency in mice by tail-flick method (in vivo); settings: for AD50: mice, tail-flick; for relative potency: molar basis, AD50 of βh-endorphin as 100%
Excerpt: as §1

Row | Substance | relative potency (guinea pig ileum) [%] | IC50 (guinea pig ileum) [µM] | AD50 (mice; intracerebroventricular) | relative potency (mice; intracerebroventricular) [%] | AD50 (mice; intravenous) | relative potency (mice; intravenous) [%] | duration of analgesic activity (mice; after iv injection compared with icv injection) | in vivo analgesic activity compared with βh-endorphin (mice; mouse, iv or icv, in words)
1 | [Ala^6,7, Phe^27, Gly^31 ] - βh -EP (YGGFMAAEKSQTPLVTLFKNAIIKNAFKKGG; Beta-endorphin; UniProt P01189 237-267, looked up, variant T6A S7A Y27F E31G) [Peptide II, analog of human β-endorphin substituted with Ala at 6 and 7, Phe at 27, Gly at 31] | 118 | 0.038 | 0.46(0.28-0.77) μg/mouse | 23 | 22.1(14.3-34.3) mg/kg | 49 | – | –
2 | [D-Thr^2, Phe^27, Gly^31 ] - βh EP [Peptide IV] | 136 | 0.033 | 0.52(0.24-1.16) μg/mouse | 21 | ca. 32.0 mg/kg | 32 | – | –
3 | [Nle^5, Phe^27, Gly^31 ] - βh -EP [Peptide III] | 118 | 0.038 | 0.31(0.14-0.72) μg/mouse | 35 | ca. 17.0 mg/kg | 65 | – | –
4 | [Phe^27, Gly^31 ] - βh -EP (YGGFMTSEKSQTPLVTLFKNAIIKNAFKKGG; Beta-endorphin; UniProt P01189 237-267, looked up, variant Y27F E31G) [Peptide I, analog of human β-endorphin substituted with Phe at 27 and Gly at 31] | 128 | 0.035 | 0.09(0.08-0.11) μg/mouse | 119 | 7.5(3.4-16.5) mg/kg | 148 | shorter than after icv injection | greater in vivo analgesic activity than the natural peptide
5 | βh -endorphin [reference compound] | 100 | 0.045 | 0.11(0.07-0.17) μg/mouse | 100 | 11.4(6.4-19.6) mg/kg | 100 | – | –
